Patent publication US11730712B2, “Functionalized long-chain hydrocarbon mono- and di-carboxylic acids and derivatives thereof, and their use for the prevention or treatment of disease” (ESPERVITA THERAPEUTICS, INC., priority 2021, dated 2023)

Tested on: liver fibrosis gene panel (770 genes)
Assay: Nanostring nCounter Fibrosis panel gene expression in liver of DEN-injected mice
Type: in vivo, mouse
Settings: vs vehicle
Procedure: Nanostring Analysis. RNA was extracted from paired liver and tumor tissue from vehicle, Compound I-1 (100 mg/kg) and Compound I-32 (100 mg/kg) treated mice using an RNeasy kit (Qiagen, Calif., USA) as per manufacturer's protocol. All RNA samples passed the BioAnalyzer quality control test. The expression of target genes in liver and tumor were analyzed using the nCounter Fibrosis and Cancer Panel (NanoString Technologies, Inc., WA, USA), respectively according to manufacturer's protocol at the McMaster Genomics Facility. Technical and biological normalization against global geometric mean was performed in nSolver 4.0 software (NanoString Technologies). Technical normalization was performed in the nSolver software (version 4.0.70) by normalizing sample target raw counts to the geometric mean of positive control spike-ins. Biological normalization was performed by normalizing sample target raw counts to the geometric mean of selected housekeeping genes (Ppia, Nubp1, Nol7, Armh3, Rplp0, Cnot10, Pgk1, and Acad9). Pathway scores were calculated as the first principal component of the normalized expression values for all genes in each pathway and samples were compiled according to experimental groups to determine average pathway scores. Statistical significance was calculated between experimental groups using multiple t-tests and p-values were corrected for multiple comparisons using Benjamin-Hochberg false discovery rate.
Molecular analysis. To identify the pathways modulated in the liver and tumor tissue, nanostring analysis of fibrosis and cancer, pathways, respectively were completed in an n=8 mice treated with vehicle or Compound I-32 or Compound I-1 at 100 mg/kg.

CC(C)(CCCCc1ccc(CCCCC(C)(C)C(=O)O)cc1)C(=O)O [Compound I-1, 6-[4-(5-carboxy-5-methylhexyl)-phenyl]-2,2-dimethylhexanoic acid]
Tin1 Log2FC (NM_011602, 100 mg/kg): −0.237 | Txn1 Log2FC (NM_011660, 100 mg/kg): 0.281 | Vegfb Log2FC (NM_011697, 100 mg/kg): 0.603 | Vim Log2FC (NM_011701, 100 mg/kg): −0.309 | Adh4 Log2FC (NM_011996, 100 mg/kg): −0.808 | Apoa2 Log2FC (NM_013474, 100 mg/kg): 0.172 | Apoh Log2FC (NM_013475, 100 mg/kg): −0.225 | C9 Log2FC (NM_013485, 100 mg/kg): −1.55 | Cpt1a Log2FC (NM_013495, 100 mg/kg): −0.302 | Creb3 Log2FC (NM_013497, 100 mg/kg): −0.38 | P3h3 Log2FC (NM_013534, 100 mg/kg): −0.96 | Ptpn6 Log2FC (NM_013545, 100 mg/kg): 0.326 | Slc25a10 Log2FC (NM_013770, 100 mg/kg): 0.508 | H2-M3 Log2FC (NM_013819, 100 mg/kg): −0.69 | Xbp1 Log2FC (NM_013842, 100 mg/kg): −0.397 | Col5a1 Log2FC (NM_015734, 100 mg/kg): −0.513 | Isg15 Log2FC (NM_015783, 100 mg/kg): −0.727 | C6 Log2FC (NM_016704, 100 mg/kg): −0.969 | Smad3 Log2FC (NM_016769, 100 mg/kg): −0.317 | Irf3 Log2FC (NM_016849, 100 mg/kg): −0.154 | Ywhag Log2FC (NM_018871, 100 mg/kg): 0.305 | Fbp1 Log2FC (NM_019395, 100 mg/kg): −0.878 | Ndufa1 Log2FC (NM_019443, 100 mg/kg): 0.226 | Cpb2 Log2FC (NM_019775, 100 mg/kg): −0.58 | Uba52 Log2FC (NM_019883, 100 mg/kg): 0.484 | Ube2d2a Log2FC (NM_019912, 100 mg/kg): −0.237 | Aldh9a1 Log2FC (NM_019993, 100 mg/kg): 0.545 | Angpti4 Log2FC (NM_020581, 100 mg/kg): 0.707 | Isg20 Log2FC (NM_020583, 100 mg/kg): −0.48 | Abcb11 Log2FC (NM_021022, 100 mg/kg): −0.442 | Tlr4 Log2FC (NM_021297, 100 mg/kg): −0.608 | Mlxipl Log2FC (NM_021455, 100 mg/kg): 0.439 | Cxcl12 Log2FC (NM_021704, 100 mg/kg): −0.597 | Apoc3 Log2FC (NM_023114, 100 mg/kg): −0.657 | Kng1 Log2FC (NM_023125, 100 mg/kg): −0.396 | Cxcl16 Log2FC (NM_023158, 100 mg/kg): −0.374 | Em1 Log2FC (NM_023913, 100 mg/kg): −0.533 | Sec61b Log2FC (NM_024171, 100 mg/kg): −0.355 | Cyp27a1 Log2FC (NM_024264, 100 mg/kg): −0.594 | Fabp4 Log2FC (NM_024406, 100 mg/kg): 1.01 | Spop Log2FC (NM_025287, 100 mg/kg): 0.186 | Ndufb5 Log2FC (NM_025316, 100 mg/kg): 0.415 | Ssr2 Log2FC (NM_025448, 100 mg/kg): −0.177 | Psenen Log2FC (NM_025498, 100 mg/kg): −0.126 | Ndufc1 Log2FC (NM_025523, 100 mg/kg): 0.438 | Cox6b1 Log2FC (NM_025628, 100 mg/kg): 0.532 | Uqcrh Log2FC (NM_025641, 100 mg/kg): 0.311 | Uqcrfs1 Log2FC (NM_025710, 100 mg/kg): 0.255 | Map1lc3a Log2FC (NM_025735, 100 mg/kg): 0.807 | Ndufb8 Log2FC (NM_026061, 100 mg/kg): 0.327 | Erp29 Log2FC (NM_026129, 100 mg/kg): −0.217 | Uqcrb Log2FC (NM_026219, 100 mg/kg): 0.476 | Hikeshi Log2FC (NM_026304, 100 mg/kg): 0.233 | Sugt1 Log2FC (NM_026474, 100 mg/kg): 0.185 | Atg101 Log2FC (NM_026566, 100 mg/kg): −0.436 | Ndufs3 Log2FC (NM_026688, 100 mg/kg): 0.26 | Anapc10 Log2FC (NM_026904, 100 mg/kg): −0.291 | Ifi35 Log2FC (NM_027320, 100 mg/kg): −0.465 | Pgm2 Log2FC (NM_028132, 100 mg/kg): 0.361 | Phykpl Log2FC (NM_028398, 100 mg/kg): −0.165 | Pik3cb Log2FC (NM_029094, 100 mg/kg): −0.421 | Tlr1 Log2FC (NM_030682, 100 mg/kg): −1.09 | Hcar2 Log2FC (NM_030701, 100 mg/kg): 1.71 | Cpn1 Log2FC (NM_030703, 100 mg/kg): 0.371 | Slc2a2 Log2FC (NM_031197, 100 mg/kg): −0.543 | Lamtor2 Log2FC (NM_031248, 100 mg/kg): 0.195 | Loxl2 Log2FC (NM_033325, 100 mg/kg): −0.689 | Derl2 Log2FC (NM_033562, 100 mg/kg): −0.334 | Ube2n Log2FC (NM_080560, 100 mg/kg): −0.15 | Elovl6 Log2FC (NM_130450, 100 mg/kg): 0.819 | Acaca Log2FC (NM_133360, 100 mg/kg): 0.655 | Fgg Log2FC (NM_133862, 100 mg/kg): −0.517 | Acacb Log2FC (NM_133904, 100 mg/kg): 0.612 | Il1rap Log2FC (NM_134103, 100 mg/kg): −0.815 | Ptpa Log2FC (NM_138748, 100 mg/kg): 0.372 | Mylk Log2FC (NM_139300, 100 mg/kg): −0.458 | Fcgr4 Log2FC (NM_144559, 100 mg/kg): −0.541 | Aldob Log2FC (NM_144903, 100 mg/kg): −0.665 | C1s1 Log2FC (NM_144938, 100 mg/kg): −0.902 | Txndc5 Log2FC (NM_145367, 100 mg/kg): −0.284 | Jak1 Log2FC (NM_146145, 100 mg/kg): −0.203 | C8a Log2FC (NM_146148, 100 mg/kg): −1.21 | Pkhd1 Log2FC (NM_153179, 100 mg/kg): −0.99 | Nckap1l Log2FC (NM_153505, 100 mg/kg): −0.473 | Mbtps2 Log2FC (NM_172307, 100 mg/kg): 0.309 | Cyp4a12a Log2FC (NM_177406, 100 mg/kg): 1.65 | Acaa2 Log2FC (NM_177470, 100 mg/kg): 0.464 | Ep300 Log2FC (NM_177821, 100 mg/kg): −0.258 | Jmjd4 Log2FC (NM_178659, 100 mg/kg): −0.385 | Nceh1 Log2FC (NM_178772, 100 mg/kg): 0.592 | Hadha Log2FC (NM_178878, 100 mg/kg): 1.12 | Mfap3 Log2FC (NM_180599, 100 mg/kg): −0.377 | Fgb Log2FC (NM_181849, 100 mg/kg): −0.336 | Bst2 Log2FC (NM_198095, 100 mg/kg): 0.596 | H2-Ab1 Log2FC (NM_207105, 100 mg/kg): −0.716 | Acsl4 Log2FC (NM_207625, 100 mg/kg): 0.645 | Cflar Log2FC (NM_207653, 100 mg/kg): −0.214 | Egfr Log2FC (NM_207655, 100 mg/kg): −1.12 | Mapk9 Log2FC (NM_207692, 100 mg/kg): 0.185 | Stat3 Log2FC (NM_213659, 100 mg/kg): −0.646 | H2-K1 Log2FC (NM_001001892, 100 mg/kg): −0.284 | Kdm2a Log2FC (NM_001001984, 100 mg/kg): −0.312 | Depdc5 Log2FC (NM_001025426, 100 mg/kg): −0.27 | Cfhr2 Log2FC (NM_001025575, 100 mg/kg): −0.626 | Ndufs5 Log2FC (NM_001030274, 100 mg/kg): 0.414 | Itga1 Log2FC (NM_001033228, 100 mg/kg): −0.394 | Ndufb6 Log2FC (NM_001033305, 100 mg/kg): 0.243 | Xaf1 Log2FC (NM_001037713, 100 mg/kg): −0.742 | Banf1 Log2FC (NM_001038231, 100 mg/kg): 0.319 | Smurf1 Log2FC (NM_001038627, 100 mg/kg): −0.697 | Nrp2 Log2FC (NM_001077403, 100 mg/kg): 0.665 | Ptafr Log2FC (NM_001081211, 100 mg/kg): −0.518 | Brpf3 Log2FC (NM_001081315, 100 mg/kg): 0.434 | Rapgef2 Log2FC (NM_001099624, 100 mg/kg): −0.262 | Kng2 Log2FC (NM_001102410, 100 mg/kg): −0.305 | Aqp8 Log2FC (NM_001109045, 100 mg/kg): −0.993 | Igf1 Log2FC (NM_001111274, 100 mg/kg): −0.496 | Lrrc32 Log2FC (NM_001113379, 100 mg/kg): −0.438 | Stat5b Log2FC (NM_001113563, 100 mg/kg): −0.322 | Il1r1 Log2FC (NM_001123382, 100 mg/kg): −0.998 | Aldh7a1 Log2FC (NM_001127338, 100 mg/kg): −0.252 | Chuk Log2FC (NM_001162410, 100 mg/kg): 0.202 | Mmm1 Log2FC (NM_001163507, 100 mg/kg): −0.231 | Cyfip1 Log2FC (NM_001164661, 100 mg/kg): −0.264 | Akt1 Log2FC (NM_001165894, 100 mg/kg): −0.226 | Cd84 Log2FC (NM_001252472, 100 mg/kg): −0.439 | Apoc2 Log2FC (NM_001277944, 100 mg/kg): −1.26 | Cd68 Log2FC (NM_001291058, 100 mg/kg): −0.613 | Col6a3 Log2FC (XM_897036, 100 mg/kg): −1.06
